Measured values as given in the supplement of paper PMC13207355.
Counter-ions that a name gives are not always drawn.

Legend:
Conditions in all cases: exposure time: 72 h
[1] = test system: E57 (patient-derived glioblastoma stem cells of mesenchymal subtype); experiment: phenotypic distance (Euclidean, principal components) from DMSO controls (arbitrary units); higher = stronger morphological change
[2] = test system: E31 (patient-derived glioblastoma stem cells of proneural subtype); experiment: as above
[3] = test system: E34 (patient-derived glioblastoma stem cells of proneural subtype); experiment: as above
[4] = test system: E13 (patient-derived glioblastoma stem cells of classical subtype); experiment: as above
[5] = test system: E21 (patient-derived glioblastoma stem cells of mesenchymal subtype); experiment: as above
[6] = test system: FT3469 (normal neural stem cell line); experiment: as above
[7] = test system: E28 (patient-derived glioblastoma stem cells of classical subtype); experiment: as above
[8] = test system: E57; experiment: surviving fraction (nuclei count normalised to DMSO); higher = more cells surviving (less toxic)
[9] = test system: E31; experiment: as above
[10] = test system: E34; experiment: as above
[11] = test system: E13; experiment: as above
[12] = test system: E21; experiment: as above
[13] = test system: FT3469; experiment: as above
[14] = test system: E28; experiment: as above
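For phenotypic distance (Euclidean, principal components) from DMSO controls in this document: cell Painting imaging in 384-well plates, CellProfiler features reduced to at least 20 principal components, Euclidean distance versus same-plate DMSO vehicle wells (0.1% v/v), median over six images per well.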
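For surviving fraction (nuclei count normalised to DMSO) in this document: nuclei counted by high-content imaging of Hoechst-stained cells in laminin-coated 384-well plates, relative to 0.1% DMSO vehicle wells, with staurosporine as cell-death control.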

COc1cc(OC)c(C(=O)CCCN2CCCC2)c(OC)c1 [Buflomedil hydrochloride]
Conditions	phenotypic distance	surviving fraction
[1], 4.1 nM	0.802	–
[1], 12.3 nM	1.18	–
[1], 37 nM	4.02	–
[1], 111.1 nM	0.575	–
[1], 333.3 nM	0.903	–
[1], 1000 nM	0.71	–
[1], 3000 nM	0.526	–
[2], 4.1 nM	0.629	–
[2], 12.3 nM	0.47	–
[2], 37 nM	0.918	–
[2], 111.1 nM	0.593	–
[2], 333.3 nM	0.443	–
[2], 1000 nM	0.577	–
[2], 3000 nM	0.55	–
[3], 4.1 nM	0.771	–
[3], 12.3 nM	0.727	–
[3], 37 nM	0.358	–
[3], 111.1 nM	1.11	–
[3], 333.3 nM	0.684	–
[3], 1000 nM	0.961	–
[3], 3000 nM	0.717	–
[4], 4.1 nM	0.727	–
[4], 12.3 nM	0.83	–
[4], 37 nM	0.928	–
[4], 111.1 nM	0.845	–
[4], 333.3 nM	0.564	–
[4], 1000 nM	0.536	–
[4], 3000 nM	0.71	–
[5], 4.1 nM	0.617	–
[5], 12.3 nM	0.741	–
[5], 37 nM	0.582	–
[5], 111.1 nM	0.712	–
[5], 333.3 nM	0.706	–
[5], 1000 nM	0.913	–
[5], 3000 nM	0.567	–
[6], 4.1 nM	0.468	–
[6], 12.3 nM	4.94	–
[6], 37 nM	1.05	–
[6], 111.1 nM	0.796	–
[6], 333.3 nM	0.368	–
[6], 1000 nM	0.514	–
[6], 3000 nM	1.05	–
[7], 4.1 nM	0.701	–
[7], 12.3 nM	0.827	–
[7], 37 nM	0.611	–
[7], 111.1 nM	0.817	–
[7], 333.3 nM	0.347	–
[7], 1000 nM	0.489	–
[7], 3000 nM	0.878	–
[8], 4.1 nM	–	1.06
[8], 12.3 nM	–	1.03
[8], 37 nM	–	0.98
[8], 111.1 nM	–	1.02
[8], 333.3 nM	–	1.04
[8], 1000 nM	–	0.994
[8], 3000 nM	–	0.9
[9], 4.1 nM	–	0.968
[9], 12.3 nM	–	0.998
[9], 37 nM	–	1.23
[9], 111.1 nM	–	1.03
[9], 333.3 nM	–	1.2
[9], 1000 nM	–	1.04
[9], 3000 nM	–	1.02
[10], 4.1 nM	–	0.963
[10], 12.3 nM	–	1.03
[10], 37 nM	–	1.02
[10], 111.1 nM	–	1.11
[10], 333.3 nM	–	1.02
[10], 1000 nM	–	1.22
[10], 3000 nM	–	0.991
[11], 4.1 nM	–	0.886
[11], 12.3 nM	–	1.12
[11], 37 nM	–	1.19
[11], 111.1 nM	–	1.13
[11], 333.3 nM	–	1.01
[11], 1000 nM	–	1.17
[11], 3000 nM	–	0.944
[12], 4.1 nM	–	1.05
[12], 12.3 nM	–	1.06
[12], 37 nM	–	1.02
[12], 111.1 nM	–	1.12
[12], 333.3 nM	–	1.13
[12], 1000 nM	–	1.12
[12], 3000 nM	–	0.927
[13], 4.1 nM	–	0.947
[13], 12.3 nM	–	1.27
[13], 37 nM	–	1.15
[13], 111.1 nM	–	1
[13], 333.3 nM	–	1.03
[13], 1000 nM	–	1.1
[13], 3000 nM	–	0.993
[14], 4.1 nM	–	1.16
[14], 12.3 nM	–	1.19
[14], 37 nM	–	0.856
[14], 111.1 nM	–	1.21
[14], 333.3 nM	–	1.1
[14], 1000 nM	–	1.16
[14], 3000 nM	–	0.677

COc1ccc(C(=O)CC(=O)c2ccc(C(C)(C)C)cc2)cc1 [Avobenzone]
Conditions	phenotypic distance	surviving fraction
[1], 4.1 nM	0.899	–
[1], 12.3 nM	1.11	–
[1], 37 nM	0.644	–
[1], 111.1 nM	0.447	–
[1], 333.3 nM	1.15	–
[1], 1000 nM	0.55	–
[1], 3000 nM	1.16	–
[2], 4.1 nM	0.665	–
[2], 12.3 nM	0.919	–
[2], 37 nM	0.653	–
[2], 111.1 nM	0.43	–
[2], 333.3 nM	0.486	–
[2], 1000 nM	0.737	–
[2], 3000 nM	0.899	–
[3], 4.1 nM	0.805	–
[3], 12.3 nM	0.881	–
[3], 37 nM	0.524	–
[3], 111.1 nM	0.804	–
[3], 333.3 nM	0.741	–
[3], 1000 nM	0.759	–
[3], 3000 nM	1.45	–
[4], 4.1 nM	1.11	–
[4], 12.3 nM	0.579	–
[4], 37 nM	0.386	–
[4], 111.1 nM	0.499	–
[4], 333.3 nM	0.627	–
[4], 1000 nM	0.606	–
[4], 3000 nM	0.743	–
[5], 4.1 nM	0.845	–
[5], 12.3 nM	0.782	–
[5], 37 nM	0.67	–
[5], 111.1 nM	0.818	–
[5], 333.3 nM	0.929	–
[5], 1000 nM	0.701	–
[5], 3000 nM	1.59	–
[6], 4.1 nM	0.579	–
[6], 12.3 nM	0.768	–
[6], 37 nM	0.688	–
[6], 111.1 nM	0.824	–
[6], 333.3 nM	0.788	–
[6], 1000 nM	2.5	–
[6], 3000 nM	0.402	–
[7], 4.1 nM	1.01	–
[7], 12.3 nM	0.675	–
[7], 37 nM	0.613	–
[7], 111.1 nM	0.631	–
[7], 333.3 nM	0.646	–
[7], 1000 nM	0.601	–
[7], 3000 nM	0.879	–
[8], 4.1 nM	–	1.04
[8], 12.3 nM	–	1.07
[8], 37 nM	–	1.02
[8], 111.1 nM	–	0.975
[8], 333.3 nM	–	1.12
[8], 1000 nM	–	1.03
[8], 3000 nM	–	0.96
[9], 4.1 nM	–	0.989
[9], 12.3 nM	–	1.02
[9], 37 nM	–	1.02
[9], 111.1 nM	–	0.921
[9], 333.3 nM	–	0.973
[9], 1000 nM	–	1.06
[9], 3000 nM	–	0.941
[10], 4.1 nM	–	1.08
[10], 12.3 nM	–	0.923
[10], 37 nM	–	0.995
[10], 111.1 nM	–	1.06
[10], 333.3 nM	–	1.04
[10], 1000 nM	–	1.03
[10], 3000 nM	–	0.818
[11], 4.1 nM	–	0.902
[11], 12.3 nM	–	1.02
[11], 37 nM	–	1.08
[11], 111.1 nM	–	0.948
[11], 333.3 nM	–	1.11
[11], 1000 nM	–	1.07
[11], 3000 nM	–	0.8
[12], 4.1 nM	–	1.1
[12], 12.3 nM	–	1.17
[12], 37 nM	–	1.05
[12], 111.1 nM	–	1.13
[12], 333.3 nM	–	1.13
[12], 1000 nM	–	1.07
[12], 3000 nM	–	0.82
[13], 4.1 nM	–	1.08
[13], 12.3 nM	–	1.38
[13], 37 nM	–	1
[13], 111.1 nM	–	1.2
[13], 333.3 nM	–	0.863
[13], 1000 nM	–	1.25
[13], 3000 nM	–	0.973
[14], 4.1 nM	–	1.14
[14], 12.3 nM	–	1.14
[14], 37 nM	–	1.14
[14], 111.1 nM	–	0.988
[14], 333.3 nM	–	1.06
[14], 1000 nM	–	1.12
[14], 3000 nM	–	0.739
